Reference: patent US20140343000A1 (priority 2011, published 2014)

System: recombinant NL4-3 virus (Renilla luciferase in nef, Gag P373S; NLRluc) in MT-2 cells
Assay: whole plant or invertebrate
Assay type: cell-based, HIV
Conditions: Renilla, NL43, luciferase activity in cells infected for 4-5 days with NLRluc recombinants, serial dilutions of inhibitor; class symbols (key in Table 1); read-out: EC50
Outline: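 Read-out is Renilla luciferase, measured immediately after adding a premixed lysis/Dual Luciferase reagent. The reporter virus, NL4-3 with luciferase replacing part of nef plus Gag P373S, infected MT-2 cells for 4–5 days under serially diluted inhibitor.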

SMILES	EC50 [nM]
C=C(C)[C@@H]1CC[C@]2(NC(=O)CN3CCCC3=O)CC[C@]3(C)[C@H](CC[C@@H]4[C@@]5(C)CC=C(c6ccc(C(=O)O)cc6)C(C)(C)[C@@H]5CC[C@]43C)[C@@H]12 [Example 95, 4-((1R,3aS,5aR,5bR,7aR,11aS,11bR,13aR,13bR)-5a,5b,8,8,11a-pentamethyl-3a-(2-(2-oxopyrrolidin-1-yl)acetamido)-1-(prop-1-en-2-yl)-2,3,3a,4,5,5a,5b,6,7,7a,8,11,11a,11b,12,13,13a,13b-octadecahydro-1H-cyclopenta[a]chrysen-9-yl)benzoic acid]	< 100
C=C(C)[C@@H]1CC[C@]2(NC(=O)CN3CCN(C(C)C)CC3)CC[C@]3(C)[C@H](CC[C@@H]4[C@@]5(C)CC=C(c6ccc(C(=O)O)cc6)C(C)(C)[C@@H]5CC[C@]43C)[C@@H]12 [Example 96, 4-((1R,3aS,5aR,5bR,7aR,11aS,11bR,13aR,13bR)-3a-(2-(4-isopropylpiperazin-1-yl)acetamido)-5a,5b,8,8,11a-pentamethyl-1-(prop-1-en-2-yl)-2,3,3a,4,5,5a,5b,6,7,7a,8,11,11a,11b,12,13,13a,13b-octadecahydro-1H-cyclopenta[a]chrysen-9-yl)benzoic acid]	< 100
C=C(C)[C@@H]1CC[C@]2(NC(=O)CN3CCOCC3)CC[C@]3(C)[C@H](CC[C@@H]4[C@@]5(C)CC=C(c6ccc(C(=O)O)cc6)C(C)(C)[C@@H]5CC[C@]43C)[C@@H]12 [Example 97, 4-((1R,3aS,5aR,5bR,7aR,11aS,11bR,13aR,13bR)-5a,5b,8,8,11a-pentamethyl-3a-(2-morpholinoacetamido)-1-(prop-1-en-2-yl)-2,3,3a,4,5,5a,5b,6,7,7a,8,11,11a,11b,12,13,13a,13b-octadecahydro-1H-cyclopenta[a]chrysen-9-yl)benzoic acid]	< 100
C=C(C)[C@@H]1CC[C@]2(NC(=O)CN3CCSCC3)CC[C@]3(C)[C@H](CC[C@@H]4[C@@]5(C)CC=C(c6ccc(C(=O)O)cc6)C(C)(C)[C@@H]5CC[C@]43C)[C@@H]12 [Example 98, 4-((1R,3aS,5aR,5bR,7aR,11aS,11bR,13aR,13bR)-5a,5b,8,8,11a-pentamethyl-1-(prop-1-en-2-yl)-3a-(2-thiomorpholinoacetamido)-2,3,3a,4,5,5a,5b,6,7,7a,8,11,11a,11b,12,13,13a,13b-octadecahydro-1H-cyclopenta[a]chrysen-9-yl)benzoic acid]	< 100
C=C(C)[C@@H]1CC[C@]2(NC(=O)C(CC3CCCCC3)N3CCS(=O)(=O)CC3)CC[C@]3(C)[C@H](CC[C@@H]4[C@@]5(C)CC=C(c6ccc(C(=O)O)cc6)C(C)(C)[C@@H]5CC[C@]43C)[C@@H]12 (stereo partly drawn) [Example 99, benzoic acid, 4-[(1R,3aS,5aR,5bR,7aR,11aS,11bR,13aR,13bR)-3a-[[3-cyclohexyl-2-(1,1-dioxido-4-thiomorpholinyl)-1-oxopropyl]amino]-2,3,3a,4,5,5a,5b,6,7,7a,8,11,11a,11b,12,13,13a,13b-octadecahydro-5a,5b,8,8,11a-pentamethyl-1-(1-methylethenyl)-1H-cyclopenta[a]chrysen-9-yl]]	< 100
C=C(C)[C@@H]1CC[C@]2(NC(=O)CN(C)C3CCS(=O)(=O)C3)CC[C@]3(C)[C@H](CC[C@@H]4[C@@]5(C)CC=C(c6ccc(C(=O)O)cc6)C(C)(C)[C@@H]5CC[C@]43C)[C@@H]12 (stereo partly drawn) [Example 100, benzoic acid, 4-[(1R,3aS,5aR,5bR,7aR,11aS,11bR,13aR,13bR)-2,3,3a,4,5,5a,5b,6,7,7a,8,11,11a,11b,12,13,13a,13b-octadecahydro-5a,5b,8,8,11a-pentamethyl-1-(1-methylethenyl)-3a-[[[methyl(tetrahydro-1,1-dioxido-3-thienyl)amino]acetyl]amino]-1H-cyclopenta[a]chrysen-9-yl]]	< 100
C=C(C)[C@@H]1CC[C@]2(NC(=O)Cc3cnccn3)CC[C@]3(C)[C@H](CC[C@@H]4[C@@]5(C)CC=C(c6ccc(C(=O)O)cc6)C(C)(C)[C@@H]5CC[C@]43C)[C@@H]12 [Example 102, 4-((1R,3aS,5aR,5bR,7aR,11aS,11bR,13aR,13bR)-5a,5b,8,8,11a-pentamethyl-1-(prop-1-en-2-yl)-3a-(2-(pyrazin-2-yl)acetamido)-2,3,3a,4,5,5a,5b,6,7,7a,8,11,11a,11b,12,13,13a,13b-octadecahydro-1H-cyclopenta[a]chrysen-9-yl)benzoic acid]	< 100
C=C(C)[C@@H]1CC[C@]2(NC(=O)Cn3cnnn3)CC[C@]3(C)[C@H](CC[C@@H]4[C@@]5(C)CC=C(c6ccc(C(=O)O)cc6)C(C)(C)[C@@H]5CC[C@]43C)[C@@H]12 [Example 103, 4-((1R,3aS,5aR,5bR,7aR,11aS,11bR,13aR,13bR)-3a-(2-(1H-tetrazol-1-yl)acetamido)-5a,5b,8,8,11a-pentamethyl-1-(prop-1-en-2-yl)-2,3,3a,4,5,5a,5b,6,7,7a,8,11,11a,11b,12,13,13a,13b-octadecahydro-1H-cyclopenta[a]chrysen-9-yl)benzoic acid]	< 100
C=C(C)[C@@H]1CC[C@]2(NC(=O)CN3C(=O)OCc4ccc(Cl)cc43)CC[C@]3(C)[C@H](CC[C@@H]4[C@@]5(C)CC=C(c6ccc(C(=O)O)cc6)C(C)(C)[C@@H]5CC[C@]43C)[C@@H]12 [Example 104, 4-((1R,3aS,5aR,5bR,7aR,11aS,11bR,13aR,13bR)-3a-(2-(7-chloro-2-oxo-2,4-dihydro-1H-benzo[d][1,3]oxazin-1-yl)acetamido)-5a,5b,8,8,11a-pentamethyl-1-(prop-1-en-2-yl)-2,3,3a,4,5,5a,5b,6,7,7a,8,11,11a,11b,12,13,13a,13b-octadecahydro-1H-cyclopenta[a]chrysen-9-yl)benzoic acid]	< 100
C=C(C)[C@@H]1CC[C@]2(NC(=O)CN3CCOC3=O)CC[C@]3(C)[C@H](CC[C@@H]4[C@@]5(C)CC=C(c6ccc(C(=O)O)cc6)C(C)(C)[C@@H]5CC[C@]43C)[C@@H]12 [Example 105, 4-((1R,3aS,5aR,5bR,7aR,11aS,11bR,13aR,13bR)-5a,5b,8,8,11a-pentamethyl-3a-(2-(2-oxooxazolidin-3-yl)acetamido)-1-(prop-1-en-2-yl)-2,3,3a,4,5,5a,5b,6,7,7a,8,11,11a,11b,12,13,13a,13b-octadecahydro-1H-cyclopenta[a]chrysen-9-yl)benzoic acid]	< 100
C=C(C)[C@@H]1CC[C@]2(NC(=O)CNCCO)CC[C@]3(C)[C@H](CC[C@@H]4[C@@]5(C)CC=C(c6ccc(C(=O)O)cc6)C(C)(C)[C@@H]5CC[C@]43C)[C@@H]12 [Example 106, 4-((1R,3aS,5aR,5bR,7aR,11aS,11bR,13aR,13bR)-3a-(2-(2-hydroxyethylamino)acetamido)-5a,5b,8,8,11a-pentamethyl-1-(prop-1-en-2-yl)-2,3,3a,4,5,5a,5b,6,7,7a,8,11,11a,11b,12,13,13a,13b-octadecahydro-1H-cyclopenta[a]chrysen-9-yl)benzoic acid]	< 100

Same assay, conditions: luciferase activity in cells infected for 4-5 days with NLRluc recombinants, serial dilutions of inhibitor; class symbols (key in Table 1); read-out: EC50

SMILES	EC50 [nM]
C=C(C)[C@@H]1CC[C@]2(NC(=O)CC(c3cccs3)N3CCS(=O)(=O)CC3)CC[C@]3(C)[C@H](CC[C@@H]4[C@@]5(C)CC=C(c6ccc(C(=O)O)cc6)C(C)(C)[C@@H]5CC[C@]43C)[C@@H]12 (stereo partly drawn) [Example 101]	< 100
